# Measurements reported in patent US9505735B2, “Compounds for treating infectious diseases” (Whitehead Institute for Biomedical Research, priority 2012, dated 2016).
# Key:
# Candida glabrata = assay: Antifungal susceptibility testing; assay type: cell-based
# Procedure: (§1) Sensitivity to gepinacin was determined in 96-well, flat bottom microtiter plates using a modification of the NCCLS broth microdilution protocol CLS M27-A3 and RPMI as culture medium. Fungi were inoculated at ˜10^3 cells per ml and incubated for 48 hours at 37° C. after which plates were sealed, shaken and the optical density read at 600 nm (OD600) on a Tecan Safire 2 plate reader. All samples were run in duplicate or triplicate and assays were repeated at least once. Results are expressed as fraction of growth in the absence of compound and the mean and standard deviation are plotted. For the mold A. terreus, inoculum was 10^4 cells per ml and plates were incubated at 35° C. for 48 hours in the dark. Plates were then visually scored as specified by CLSI document M38-A2 to determine the MIC50 and MIC80.
# S. cerevisiae = assay: Antifungal susceptibility testing; assay type: cell-based
# Procedure: as §1
# [1] = tested on: RAW264.7 macrophages co-cultured with treated C. albicans; assay: Macrophage stimulation and TNFα measurement (ELISA); assay type: cell-based, mouse; conditions: 2 hours co-culture
# Procedure: Cultures of C. albicans Sc5314 cells were drug treated as described for β-glucan staining. After overnight incubation, cultures were washed extensively, counted, and added to cultures of the mouse macrophage cell line RAW264.7 at a macrophage:yeast ratio of 1:2.5 in the continued presence of drug. After 2 hours supernatants were harvested and TNFα concentration measured by ELISA using a kit according to manufacturer's instructions (DY410, R&D Systems).
# Aspergillus terreus = assay: Antifungal susceptibility testing (mold, MIC50/MIC80); assay type: cell-based
# Procedure: as §1
# Gwt1 [2] = target: T1, Gwt1 (Saccharomyces cerevisiae, UniProt P47026); assay: Antifungal susceptibility testing, screening strains with plasmid-borne GWT1 (low or high copy); assay type: cell-based, S. cerevisiae
# T1 construct: Wildtype S. cerevisiae BY4741; endogenous in cells; host or cells: S. cerevisiae BY4741 (wild type)
# T1 sequence (P47026 1-490): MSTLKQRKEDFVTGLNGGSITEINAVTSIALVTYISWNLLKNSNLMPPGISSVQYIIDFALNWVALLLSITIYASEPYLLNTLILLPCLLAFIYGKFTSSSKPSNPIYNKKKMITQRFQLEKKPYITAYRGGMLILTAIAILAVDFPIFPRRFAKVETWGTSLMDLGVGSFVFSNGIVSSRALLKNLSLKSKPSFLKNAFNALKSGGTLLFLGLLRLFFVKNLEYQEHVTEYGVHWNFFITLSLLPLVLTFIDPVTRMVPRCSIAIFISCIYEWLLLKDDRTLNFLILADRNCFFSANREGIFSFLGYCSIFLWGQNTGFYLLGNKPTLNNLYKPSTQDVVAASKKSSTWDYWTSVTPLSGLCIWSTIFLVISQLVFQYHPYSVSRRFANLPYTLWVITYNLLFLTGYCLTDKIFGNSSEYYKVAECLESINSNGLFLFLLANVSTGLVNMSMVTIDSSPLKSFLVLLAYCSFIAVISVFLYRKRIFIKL
# Procedure: as §1
# Because GWT1 deletion is lethal in S. cerevisiae strain BY4741, a haploid shuttle strain was constructed in which the genomic copy of GWT1 was deleted and replaced by GWT1 on a plasmid that also encoded the URA3 gene and a G418-resistance gene. To construct this shuttle strain a gwt1Δ/GWT1 heterozygous deletion mutant was transformed with pAGGPD416-GWT1, sporulated and dissected. A colony was selected that grew on both SD-URA and G418-containing plates. PCR with the deletion specific primers (http://wwwsequence.stanford.edu/group/yeast_deletion_project/deletions3.html) was performed to confirm the GWT1 deletion. To change the source of GWT, this shuttle strain was transformed with plasmids containing GWT1 (as a control) or PIG-W and the LEU2 auxotrophy gene followed by selection for growth on SD-LEU plates. Plasmids were constructed by conventional Gateway technology using a GWT1 encoding entry vector and either pAG415GPDccdB or pAG425GPDccdB as the destination vectors. Positive colonies were selected and grown on 5-fluoroorotic acid (5-FOA)-containing plates to promote loss of the pAGGPD416-GWT1 plasmid. The colonies from this plate were then tested for return of uridine auxotrophy to confirm pAGGPD416-GWT1 loss. The PIG-W expression vector was constructed by recombination in yeast as follows. The pAG415GPDccdB vector was cut with Xho1 and Xba1 and the larger piece was gel and column purified. The coding sequence of PIG-W was PCR amplified from the entry clone so that it would have ends facilitating recombination with the cut vector. The shuttle strain was then transformed with these two DNA fragments and plated on SD-LEU plates to select for recombinants. PIG-W plasmid was isolated from the final strain and sequence verified.
# The following gepinacin analogs were tested for activity against Gwt1. Gepinacin, M3, CM2, CM4, CM6, CM7, CM8, and 857621-56-8 were available commercially. The compounds were tested using the “Antifungal Susceptibility Testing” protocol described above. Fungi tested are described in the “Fungal Strains” section above.
# An S. cerevesiae strain was generated in which the endogenous Gwt1 gene was deleted. Plasmids (either high copy or low copy) with either S. cerevesiae or human Gwt1 were introduced to produce strains bearing such plasmids expressing either S. cerevesiae or human Gwt1 from a constitutive promoter. Yeast strains were cultured in liquid media in the presence of indicated compounds. Shown in FIGS. 22A-D show the effect of the indicated compounds on growth (assessed by OD600) and viability (assessed using Bactiter Glo) of the yeast strain with high copy or low copy plasmid containing S. cerevesiae Gwt1. The compounds had no effect on strains with the human Gwt1, thus showing the compounds' sensitivity for the fungal (yeast) Gwt1 gene.
# Gwt1 [3] = target: T1, Gwt1; assay: In vitro acylation assay with yeast membranes; assay type: biochemical, S. cerevisiae
# Procedure: Experiments were performed using a previously published protocol (Umemara, et al. (2003) J Biol Chem 278, 23639-23647) with the following modifications; UDP[^3H]GlcNAc was used instead of [^14C] and TLC plates were imaged by autoradiography. Lipid extracts were treated overnight with phosphatidylinositol-specific phospholipase C to confirm that the band identified as GlcN-(acyl)PI was resistant to cleavage (data not shown).
# Production of GPI-anchors begins on the cytoplasmic surface of the ER but is completed on the luminal side. Gwt1 (in yeast) or PIG-W (mammalian) acts at the first step on the luminal side of the ER, the acylation of glucosamine phosphatidylinositol (GlcN-PI) (FIG. 2b) (Sagane, et al. (2011) J Biol Chem 286, 14649-14658; Murakami, et al. (2003) Mol Biol Cell 14, 4285-4295). To provide direct biochemical evidence that Gwt1 is the proximal protein target of gepinacin in vitro acylation reactions were performed using yeast membrane preparations. UDP[^3H]GlcNAc was incubated with the membranes, and the resulting lipid products were recovered by chemical extraction and fractionated by silica gel thin layer chromatography (TLC). The appearance of a phospholipase-C insensitive band indicated the production of the acylated product.
smiles,measurement,setting,value
COc1ccc(NC(=O)COc2cccc(OCC(C)C)c2)cc1 [gepinacin],growth inhibition,Candida glabrata,inhibited the growth
same,growth inhibition,S. cerevisiae,inhibited the growth
same,TNFα secretion by macrophages,[1],more than doubled
same,growth inhibition,Aspergillus terreus,inhibited the growth
same,cell growth of the strain expressing the yeast gene (GWT1),Gwt1 [2],potently inhibited
same,"acyltransferase activity, strain expressing the yeast gene",Gwt1 [3]; membranes of low copy plasmid strain,potently inhibited
same,acylation of GlcN-PI,"Gwt1 [3]; yeast membrane preparations, inactive analog at 10 μM",inhibited the acylation of GlcN-PI at low micromolar concentration
